From ChEMBL document CHEMBL1140962, “An efficient tool for identifying inhibitors based on 3D-QSAR and docking using feature-shape pharmacophore of biologically active conformation--a case study with CDK2/cyclinA” (Eur J Med Chem, 2008)

Biological target: Cyclin-dependent kinase 2 (Homo sapiens, UniProt P24941)
Assay: Inhibition of CDK2/Cyclin A

IC50 (read-out: IC50) | IC50 (read-out: pIC50 (converted)) | Structure (SMILES)
> 10000 nM | – | O=C(Nc1cc(-c2ccccc2)[nH]n1)c1ccc(Br)cc1
> 10000 nM | – | CCCC(=O)Nc1cc(C)[nH]n1
10000 nM | – | O=C(Nc1cc(C2CC2)[nH]n1)c1ccccc1Cl
> 10000 nM | – | COc1ccccc1C(=O)Nc1cc(C2CC2)[nH]n1
> 10000 nM | – | CC(C)(C)c1cc(NC(=O)c2ccc(Br)cc2)n[nH]1
> 10000 nM | – | O=C(Nc1cc(C2CC2)[nH]n1)c1c(Cl)cccc1Cl
10000 nM | – | O=C(Nc1cc(C2CCCCC2)[nH]n1)c1ccc(Br)cc1
> 10000 nM | – | CO[C@@H](C(=O)Nc1cc(C2CC2)n[nH]1)c1ccccc1
> 10000 nM | – | O=C(Nc1cc(Cc2ccccc2)[nH]n1)c1ccc(Br)cc1
4 nM | 4 nM | O=C(Cc1ccc(-c2ccccc2)c(F)c1)Nc1cc(C2CC2)n[nH]1
9 nM | 8.99 nM | Cc1cc(CC(=O)Nc2cc(C3CC3)[nH]n2)ccc1-c1ccccc1
3 nM | 3 nM | O=C(Cc1ccc(Cc2cccs2)cc1)Nc1cc(C2CC2)n[nH]1
